From patent US6451786B1 (Cephalon, Inc., priority 1997, dated 2002)
pIC50: −log10 of the molar value.

Assays:
[1] = biological target: T1, baculovirus-expressed human trkA cytoplasmic domain (Homo sapiens, UniProt P04629); experiment: Inhibition of trkA kinase activity (ELISA-based assay); type: biochemical; details: 40 μM ATP, read-out: trk IC50
T1 construct: baculovirus-expressed human trkA cytoplasmic domain; made in house; host or cells: baculovirus expression system (insect cells)
Procedure: An antibody to phosphotyrosine (UBI) was then added, followed by a secondary enzyme-conjugated antibody, alkaline phosphatase-labelled goat anti-mouse IgG (Bio-Rad). The activity of the bound enzyme was measured using an amplified detection system (Gibco-BRL). Inhibition data were analyzed using the sigmoidal dose-response (variable slope) equation in GraphPad Prism.

trkA = biological target: T2, trkA (Homo sapiens, UniProt P04629); type: cell-based; details: NIH3T3 cells; for inhibition at 0.001 µM: 1 nM compound, read-out: Inhibition Score 1 nM; for inhibition at 0.001 µM / inhibition at 0.01 µM / inhibition at 0.05 µM / inhibition at 0.1 µM: NGF 10 ng/ml, percent decrease in trk protein band; for inhibition at 0.01 µM: 10 nM compound, read-out: Inhibition Score 10 nM; for inhibition at 0.05 µM: 50 nM compound, read-out: Inhibition Score 50 nM; for inhibition at 0.1 µM: 100 nM compound, read-out: Inhibition Score 100 nM
T2 construct: expressed in transfected cells; host or cells: NIH3T3 cells
Procedure: NIH3T3 cells transfected with trkA were grown in 100 mm dishes. […] NGF (Harlan/Bioproducts for Science) was then added to the cells at a concentration of 10 ng/ml for 5 minutes. Cells were lysed in buffer containing detergent and protease inhibitors. Clarified cell lysates were normalized to protein using BCA method and immunoprecipitated with anti-trk antibody.
The immune complexes were collected on Protein A Sepharose beads (Sigma), separated by SDS polyacrylamide gel electrophoresis (SDS-PAGE), and transferred to a polyvinylidene difluoride (PVDF) membrane. The membrane was immunoblotted with anti-phosphotyrosine antibody (UBI), followed by incubation with horseradish peroxidase coupled goat anti-mouse IgG (Bio-Rad).. Phosphorylated proteins were visualized using ECL (Amersham).
The area of the trk protein band was measured and compared to NGF-stimulated control.

[2] = biological target: T3, protein kinase C (UBI; mixed isozymes of a, b, g); experiment: Inhibition of protein kinase C activity (Multiscreen TCA in-plate assay); type: biochemical; details: read-out: PKC IC50
T3 construct: 1.5 ng protein kinase C (UBI)
Procedure: Assays were performed in 96-well Multiscreen-DP plates (Millipore). […] The reaction was allowed to proceed for 10 min at 37° C. […] The IC50 values were calculated by fitting the data to the sigmoidal dose-response (variable slope) equation in GraphPad Prism.

[3] = test system: dissociated rat embryonic spinal cord culture (ChAT activity); experiment: Enhancement of spinal cord ChAT activity in dissociated rat embryonic spinal cord culture; type: cell-based; details: ChAT measured after 2 days in vitro
Description: ChAT was employed a biochemical marker for functional cholinergic neurons. CHAT activity has been used to study the effects of neurotrophins (e.g., NGF or NT-3) on the survival and/or function of cholinergic neurons. The ChAT assay also has been used as an indication of the regulation of ChAT levels within cholinergic neurons. […] In these assays, a compound was directly added to a dissociated spinal cord culture. […] Neurochem.

[4] = test system: rat spinal cord motoneurons; experiment: Survival assay using rat spinal cord motoneurons (calcein AM viability); type: cell-based; details: cultures enriched for motoneurons, survival assessed after 4 days (FIG. 8)
Procedure: Spinal cords were dissected from Sprague-Dawley rat fetuses (Charles River Laboratories, Wilmington, Mass.) of embryonic age (E) 14.5-15. Cells from only the ventral portion of the spinal cord were dissociated, and further enriched for motoneurons by centrifugation on a 6.5% step metrizamide gradient, and were analyzed for purity by staining with low affinity neurotrophin receptor antibody (IgG-192, Boehringer-Mannheim). Cells were seeded onto 96-well plates previously coated with poly-1-ornithine and laminin (5 ug/ml each) at a density of 6×10^4 cells/cm^2 in chemically defined serum-free N2 medium (Bottenstein and Sato, 1979). To distinguish attachment from survival effects, 3,9-bis[(ethylthio)methyl]-K-252a (Kaneko et. al., J. Med. Chem 40:1863-1869, 1997) was added to cultures after an initial attachment period of 1-3 hours.
Neuronal survival was assessed after 4 days by calcein AM (Molecular Probes, Eugene, Oreg.) in a fluorimetric viability assay (Bozyczko-Coyne et. al., J. Neurosci. Meth. 50:205-216, 1993). […] The fluorescent signal was read using a plate-reading fluorimeter (Cytofluor 2350) (excitation=485 nm; emission=538 nm). […] Linearity of the fluorescence signal was verified for the concentration and incubation time for the range of cell densities. Microscopic counts of neurons correlated directly with relative fluorescence values.

T1 sequence (P04629 440-796 limits assumed): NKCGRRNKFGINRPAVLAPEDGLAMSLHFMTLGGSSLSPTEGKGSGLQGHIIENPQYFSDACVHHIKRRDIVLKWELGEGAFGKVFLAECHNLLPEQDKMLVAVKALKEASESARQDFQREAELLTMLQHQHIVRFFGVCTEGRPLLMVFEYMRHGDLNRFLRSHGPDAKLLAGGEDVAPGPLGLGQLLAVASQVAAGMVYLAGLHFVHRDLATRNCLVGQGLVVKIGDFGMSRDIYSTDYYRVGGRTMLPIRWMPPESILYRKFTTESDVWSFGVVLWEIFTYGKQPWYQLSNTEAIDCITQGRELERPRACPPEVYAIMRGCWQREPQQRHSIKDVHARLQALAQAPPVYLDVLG
T2 sequence (P04629 33-796, species assumed): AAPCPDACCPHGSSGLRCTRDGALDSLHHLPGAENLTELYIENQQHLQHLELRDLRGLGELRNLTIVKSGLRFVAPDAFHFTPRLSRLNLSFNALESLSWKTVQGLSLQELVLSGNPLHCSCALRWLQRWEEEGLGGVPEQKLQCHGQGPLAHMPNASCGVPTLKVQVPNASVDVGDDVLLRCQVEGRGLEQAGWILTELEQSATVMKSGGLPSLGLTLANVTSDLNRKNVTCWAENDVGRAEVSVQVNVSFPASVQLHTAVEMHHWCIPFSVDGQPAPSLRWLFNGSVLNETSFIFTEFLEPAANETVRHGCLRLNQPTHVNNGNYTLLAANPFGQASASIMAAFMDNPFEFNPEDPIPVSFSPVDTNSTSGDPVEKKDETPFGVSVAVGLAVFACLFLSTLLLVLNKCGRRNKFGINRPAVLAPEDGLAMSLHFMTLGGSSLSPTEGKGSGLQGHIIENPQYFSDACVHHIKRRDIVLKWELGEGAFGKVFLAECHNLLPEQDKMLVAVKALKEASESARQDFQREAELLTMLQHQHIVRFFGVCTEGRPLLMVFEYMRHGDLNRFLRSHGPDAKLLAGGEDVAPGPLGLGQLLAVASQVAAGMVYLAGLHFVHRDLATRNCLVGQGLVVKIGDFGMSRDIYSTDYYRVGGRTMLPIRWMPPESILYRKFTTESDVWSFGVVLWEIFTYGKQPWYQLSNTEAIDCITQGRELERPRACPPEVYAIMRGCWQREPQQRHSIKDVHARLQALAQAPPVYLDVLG

| SMILES | pIC50 [1] | inhibition at 0.001 µM (trkA) | inhibition at 0.01 µM (trkA) | inhibition at 0.05 µM (trkA) | inhibition at 0.1 µM (trkA) | pIC50 [2] | Spinal Cord ChAT % control, Activity at 50 nM [3] | Spinal Cord ChAT % control, Maximal Activity [3] | other results |
| --- | --- | --- | --- | --- | --- | --- | --- | --- | --- |
| C[C@]12OC(C[C@@]1(O)CO)n1c3ccccc3c3c4c(c5c6ccccc6n2c5c31)CNC4=O [Compound VII] | – | 1 to 25% | 26 to 49% | 76 to 100% | 76 to 100% | 7.10 | <120 % control | – | – |
| C[C@@]12C=C[C@@H](O1)n1c3ccccc3c3c4c(c5c6ccccc6n2c5c31)CNC4=O [Compound XXIII] | 8.40 | – | – | – | – | < 6.00 | – | – | – |
| COC(=O)[C@]1(O)CC2O[C@]1(C)n1c3ccccc3c3c4c(c5c6ccccc6n2c5c31)C(=O)NC4 [Compound XIV, 3′-(R)-K-252a] | – | – | – | – | – | – | 147 % control | 195 % control | – |
| C[C@]12OC(C[C@@]1(O)C(=O)O)n1c3ccccc3c3c4c(c5c6ccccc6n2c5c31)CNC4=O [Compound XVI] | – | – | – | – | – | – | – | – | survival of spinal cord motoneurons [4]: significantly enhanced survival |

The next lines start with results.

| pIC50 [1] | inhibition at 0.001 µM (trkA) | inhibition at 0.01 µM (trkA) | inhibition at 0.05 µM (trkA) | inhibition at 0.1 µM (trkA) | pIC50 [2] | SMILES | Spinal Cord ChAT % control, Activity at 50 nM [3] | Spinal Cord ChAT % control, Maximal Activity [3] | other results |
| --- | --- | --- | --- | --- | --- | --- | --- | --- | --- |
| 8.70 | 26 to 49% | 50 to 75% | 76 to 100% | 76 to 100% | < 6.00 | C[C@]1(O)CC2O[C@]1(C)n1c3ccccc3c3c4c(c5c6ccccc6n2c5c31)C(=O)NC4 [Compound X] | <120 % control | 127 % control | concentration giving complete inhibition of trkA (trkA): < 50 nM; pIC50 (trkA; NGF-stimulated, read-out: IC50 for inhibiting trk in a whole cell preparation): > 8.00 |
| 7.68 | – | – | – | – | – | C[C@]12OC(C[C@@]1(O)C(N)=O)n1c3ccccc3c3c4c(c5c6ccccc6n2c5c31)CNC4=O [Compound XV] | – | 129 % control | – |
| 8.70 | – | – | – | – | 7.02 | C[C@]12OC(C[C@H]1CO)n1c3ccccc3c3c4c(c5c6ccccc6n2c5c31)CNC4=O [Compound VI] | <120 % control | 125 % control | – |
| 8.15 | – | – | – | – | – | C[C@@]1(O)C[C@H]2O[C@]1(C)n1c3ccccc3c3c4c(c5c6ccccc6n2c5c31)C(=O)NC4 [Compound XXIX, reference compound] | – | – | – |
| – | 26 to 49% | 50 to 75% | 50 to 75% | 50 to 75% | 6.51 | C[C@@]1(O)CC2O[C@]1(C)n1c3ccccc3c3c4c(c5c6ccccc6n2c5c31)C(=O)NC4 [Compound XXIX, reference compound] | – | – | complete inhibition of trkA at 100 nM (trkA; 100 nM): did not show complete inhibition |
